The values below come from patent publication US8071768B2, “Alkylquinoline and alkylquinazoline kinase modulators” (Janssen Pharmaceutica, N.V., priority 2005, dated 2011).

This experiment deals with T1, TrkB (Homo sapiens, UniProt Q16620).
T1 construct: purchased Upstate 14-507M
T1 sequence (Q16620 32-822): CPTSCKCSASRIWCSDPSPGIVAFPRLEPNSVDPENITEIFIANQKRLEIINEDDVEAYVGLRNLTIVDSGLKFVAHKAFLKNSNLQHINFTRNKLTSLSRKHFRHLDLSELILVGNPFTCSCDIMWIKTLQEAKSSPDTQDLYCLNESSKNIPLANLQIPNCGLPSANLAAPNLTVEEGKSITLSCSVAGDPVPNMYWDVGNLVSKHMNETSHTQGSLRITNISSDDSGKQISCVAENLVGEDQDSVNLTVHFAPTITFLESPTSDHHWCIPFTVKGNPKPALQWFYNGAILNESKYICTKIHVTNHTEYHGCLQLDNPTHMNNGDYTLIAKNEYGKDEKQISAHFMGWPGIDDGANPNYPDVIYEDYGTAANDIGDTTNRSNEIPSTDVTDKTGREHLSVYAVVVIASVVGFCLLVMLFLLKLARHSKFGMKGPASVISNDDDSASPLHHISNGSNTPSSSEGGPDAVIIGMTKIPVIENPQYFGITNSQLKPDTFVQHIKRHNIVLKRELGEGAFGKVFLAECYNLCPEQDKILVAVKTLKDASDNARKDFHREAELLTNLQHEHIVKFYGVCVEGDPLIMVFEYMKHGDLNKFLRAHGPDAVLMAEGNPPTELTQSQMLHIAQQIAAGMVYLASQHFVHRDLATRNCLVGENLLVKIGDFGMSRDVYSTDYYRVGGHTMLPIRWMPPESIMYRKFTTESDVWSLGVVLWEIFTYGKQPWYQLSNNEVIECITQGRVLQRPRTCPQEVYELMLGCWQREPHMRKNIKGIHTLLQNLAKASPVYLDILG
Kind of experiment: Trk B Fluorescence Polarization Kinase Assay. Particulars: uncertainty ±10%. Type of experiment: biochemical. In a few lines: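 The TrkB kinase reaction (50 nM enzyme, 20 ug/mL poly Glu4Tyr, 150 uM ATP, 5 mM MgCl2, 1% DMSO) ran 30 minutes at room temperature and was stopped with EDTA. Phosphorylation was detected by fluorescence-polarization displacement of a fluorescein phosphopeptide from an anti-phosphotyrosine antibody. IC50 came from a variable-slope sigmoidal fit of triplicates.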
By IC50 is commonly meant the midpoint of a concentration-inhibition curve. With `CS(=O)(=O)N1CCN(CCCOc2ccc3c(C4CCN(C(=O)Nc5ccc(N6CCOCC6)cc5)CC4)ncnc3c2)CC1` [Compound 118, 4-{7-[3-(4-Methanesulfonyl-piperazin-1-yl)-propoxy]-quinazolin-4-yl}-piperidine-1-carboxylic acid (4-morpholin-4-yl-phenyl)-amide], the IC50 was 14.6 µM. In turn, `COc1ccc(NC(=O)N2CCC(c3ncnc4cc(OC)c(OC)cc34)CC2)cc1` [Compound 41, 4-(6,7-Dimethoxy-quinazolin-4-yl)-piperidine-1-carboxylic acid (4-methoxy-phenyl)-amide] came in with an IC50 of 11.7 µM. `O=C(NCCCOc1ccc2c(C3CCN(C(=O)Nc4ccc(N5CCOCC5)nc4)CC3)ncnc2c1)N1CCOCC1` [Compound 113, Morpholine-4-carboxylic acid (3-{4-[1-(6-morpholin-4-yl-pyridin-3-ylcarbamoyl)-piperidin-4-yl]-quinazolin-7-yloxy}-propyl)-amide]: the IC50 was 11.5 µM. Compound `O=C(Nc1ccc(N2CCCC2)cc1)N1CCC(c2ncnc3cc(OCCCN4CCC[C@H]4CO)ccc23)CC1` [Compound 161, (S)-4-{7-[3-(2-Hydroxymethyl-pyrrolidin-1-yl)-propoxy]-quinazolin-4-yl}-piperidine-1-carboxylic acid (4-pyrrolidin-1-yl-phenyl)-amide] gave an IC50 of 6.48 µM. Compound `COc1cc2ncnc(C3CCN(C(=O)Nc4ccc(OC(F)(F)F)cc4)CC3)c2cc1OC` [Compound 50, 4-(6,7-Dimethoxy-quinazolin-4-yl)-piperidine-1-carboxylic acid (4-trifluoromethoxy-phenyl)-amide] displayed an IC50 of 0.5 µM. This IC50 is about 13-fold lower than that of the compound before. `O=C(Nc1ccc(N2CCOCC2)cc1)N1CCC(c2ncnc3cc(N4CCC[C@@H]4CO)ccc23)CC1` [Compound 132, (R)-4-[7-(2-Hydroxymethyl-pyrrolidin-1-yl)-quinazolin-4-yl]-piperidine-1-carboxylic acid (4-morpholin-4-yl-phenyl)-amide] displayed an IC50 greater than 42 µM.

`O=C(Nc1ccc(N2CCOCC2)cc1)N1CCC(c2ncnc3cc(N4CCC[C@H]4CO)ccc23)CC1` [Compound 139, (S)-4-[7-(2-Hydroxymethyl-pyrrolidin-1-yl)-quinazolin-4-yl]-piperidine-1-carboxylic acid (4-morpholin-4-yl-phenyl)-amide] returned a half-inhibitory concentration (IC50) of 33.8 µM. In the case of `CC(=O)N1CC[C@@H](Oc2ccc3c(C4CCN(C(=O)Nc5ccc(N6CCCC6)cc5)CC4)ncnc3c2)C1` [Compound 154, (R)-4-[7-(1-Acetyl-pyrrolidin-3-yloxy)-quinazolin-4-yl]-piperidine-1-carboxylic acid (4-pyrrolidin-1-yl-phenyl)-amide] it was greater than 42 µM.

`O=C(Nc1ccc(N2CCOCC2)cc1)N1CCC(c2ncnc3cc(N4CC[C@H](O)C4)ccc23)CC1` [Compound 128, 4-[7-(3-Hydroxy-pyrrolidin-1-yl)-quinazolin-4-yl]-piperidine-1-carboxylic acid (4-morpholin-4-yl-phenyl)-amide]: the IC50 is greater than 20 µM. In the case of `CC(C)Oc1ccc(NC(=O)N2CCC(c3ncnc4cc(Cl)ccc34)CC2)cc1` [Compound 29, 4-(7-Chloro-quinazolin-4-yl)-piperidine-1-carboxylic acid (4-isopropoxy-phenyl)-amide] it was 0.5 µM; in that of `COc1cc2ncnc(C3CCN(C(=O)Nc4ccc(C5CCCCC5)cc4)CC3)c2cc1OC` [Compound 21, 4-(6,7-Dimethoxy-quinazolin-4-yl)-piperidine-1-carboxylic acid (4-cyclohexyl-phenyl)-amide], 0.6 µM; in that of `O=C(Nc1ccc(N2CCCC2)cc1)N1CCC(c2ncnc3cc(OCCN4CCC[C@H]4CO)ccc23)CC1` [Compound 152, (S)-4-{7-[2-(2-Hydroxymethyl-pyrrolidin-1-yl)-ethoxy]-quinazolin-4-yl}-piperidine-1-carboxylic acid (4-pyrrolidin-1-yl-phenyl)-amide], 32.7 µM.

In the case of `O=C1CCCN1CCOc1ccc2c(C3CCN(C(=O)Nc4cnc(N5CCCC5)nc4)CC3)ncnc2c1` [Compound 84, 4-{7-[2-(2-Oxo-pyrrolidin-1-yl)-ethoxy]-quinazolin-4-yl}-piperidine-1-carboxylic acid (2-pyrrolidin-1-yl-pyrimidin-5-yl)-amide], the IC50 amounted to 0.8 µM.

For `COc1ccc2c(C3CCN(C(=O)Nc4ccc(OC(C)C)cc4)CC3)ncnc2c1` [Compound 31, 4-(7-Methoxy-quinazolin-4-yl)-piperidine-1-carboxylic acid (4-isopropoxy-phenyl)-amide], the IC50 came out at 0.4 µM. In the case of `CC(C)c1ccc(NC(=O)N2CCC(c3ncnc4ccccc34)CC2)cc1` [Compound 7, 4-Quinazolin-4-yl-piperidine-1-carboxylic acid (4-isopropyl-phenyl)-amide] it was 3.3 µM. The same measure for `COc1cc2ncnc(C3CCN(C(=O)Nc4ccc(Oc5ccccc5)cc4)CC3)c2cc1OC` [Compound 47, 4-(6,7-Dimethoxy-quinazolin-4-yl)-piperidine-1-carboxylic acid (4-phenoxy-phenyl)-amide]: 4 µM; for `CN1CCC(Oc2ccc3c(C4CCN(C(=O)Nc5ccc(N6CCOCC6)cc5)CC4)ncnc3c2)CC1` [Compound 127, 4-[7-(1-Methyl-piperidin-4-yloxy)-quinazolin-4-yl]-piperidine-1-carboxylic acid (4-morpholin-4-yl-phenyl)-amide]: 13.6 µM. The same measure for `COc1cc2ncnc(C3CCN(C(=O)Nc4ccc(-c5ccco5)cc4)CC3)c2cc1OC` [Compound 59, 4-(6,7-Dimethoxy-quinazolin-4-yl)-piperidine-1-carboxylic acid (4-furan-2-yl-phenyl)-amide]: 13.9 µM; for `COc1cc2ncnc(C3CCN(C(=O)NC4CCCCC4)CC3)c2cc1OC` [Compound 42, 4-(6,7-Dimethoxy-quinazolin-4-yl)-piperidine-1-carboxylic acid cyclohexylamide]: 28.7 µM.

In turn, `COc1cc2ncnc(C3CCN(C(=O)Cc4ccc(C(C)C)cc4)CC3)c2cc1OC` [Compound 28, 1-[4-(6,7-Dimethoxy-quinazolin-4-yl)-piperidin-1-yl]-2-(4-isopropyl-phenyl)-ethanone] gave a concentration for half-maximal inhibition (IC50) of 0.1 µM. For the compound `CC(C)Oc1ccc(NC(=O)N2CCC(c3ncnc4cc(OCCN5CCOCC5)ccc34)CC2)cc1` [Compound 37], the IC50 is 0.7 µM. This IC50 is about 7-fold higher than that of the compound before. The same measure for `CN(C)C(=O)N1CCN(CCCOc2ccc3c(C4CCN(C(=O)Nc5ccc(N6CCOCC6)cc5)CC4)ncnc3c2)CC1` [Compound 120, 4-(3-{4-[1-(4-Morpholin-4-yl-phenylcarbamoyl)-piperidin-4-yl]-quinazolin-7-yloxy}-propyl)-piperazine-1-carboxylic acid dimethylamide]: 16.7 µM; for `COc1cc2ncnc(C3CCN(CC(=O)Nc4ccc(OC(C)C)cc4)CC3)c2cc1OC` [Compound 10, 2-[4-(6,7-Dimethoxy-quinazolin-4-yl)-piperidin-1-yl]-N-(4-isopropoxy-phenyl)-acetamide]: 1 µM.
